Results: PMC10302868 (Molecules, 2023)
In brackets after ≈: the same amount, converted by molar mass. Like-named read-outs stand apart in the source and are kept apart here.

Experiments:
[1] = system: S. aureus SAU-0167 (MRSA); experiment: MIC determination; assay type: cell-based; settings: Staphylococcus aureus
[2] = system: S. aureus SAU-9922 (MRSA); experiment: MIC determination; assay type: cell-based; settings: Staphylococcus aureus
[3] = system: S. epidermidis SEP-1024; experiment: MIC determination; assay type: cell-based; settings: Staphylococcus epidermidis, SEP1024
[4] = system: S. pneumoniae SPN-1169; experiment: MIC determination; assay type: cell-based; settings: Streptococcus pneumoniae, SPN1169
[5] = system: S. pyogenes SPY-0253; experiment: MIC determination; assay type: cell-based; settings: Streptococcus pyogenes, SPY0253
[6] = system: E. faecium EFA-0221 (VRE); experiment: MIC determination; assay type: cell-based; settings: Enterococcus faecium
[7] = system: E. faecalis EFA-1299; experiment: MIC determination; assay type: cell-based; settings: Enterococcus faecalis, EFA1299
[8] = system: H. influenzae ATCC 49247; experiment: MIC determination; assay type: cell-based; settings: Haemophilus influenzae, ATCC49247
[9] = system: A. baumannii ATCC BAA-1605; experiment: MIC determination; assay type: cell-based; settings: Acinetobacter baumannii, ATCCBAA1605
[10] = system: S. maltophilia STM-0001; experiment: MIC determination; assay type: cell-based; settings: Stenotrophomonas maltophilia, STM0001
[11] = system: S. aureus ATCC 29213 (MSSA); experiment: MIC determination; assay type: cell-based; settings: Staphylococcus aureus
[12] = system: S. aureus ATCC 700698 (MRSA); experiment: MIC determination; assay type: cell-based; settings: Staphylococcus aureus
[13] = system: E. faecalis ATCC 29212; experiment: MIC determination; assay type: cell-based; settings: Enterococcus faecalis, ATCC29212
[14] = system: A. baumannii ATCC 17978; experiment: MIC determination; assay type: cell-based; settings: Acinetobacter baumannii, ATCC17978
[15] = system: K. pneumoniae ATCC BAA-1705; experiment: MIC determination; assay type: cell-based; settings: Klebsiella pneumoniae, ATCCBAA1705
[16] = system: P. aeruginosa ATCC 27853; experiment: MIC determination; assay type: cell-based; settings: Pseudomonas aeruginosa, ATCC27853
[17] = system: E. coli ATCC 25922; experiment: MIC determination; assay type: cell-based; settings: Escherichia coli, ATCC25922
[18] = system: M. abscessus-GDI; experiment: MIC determination (Microplate Alamar Blue Assay); assay type: cell-based, Mycobacterium abscessus; settings: Mycobacteroides abscessus, 72 h
[19] = system: M. abscessus-C16; experiment: MIC determination (Microplate Alamar Blue Assay); assay type: cell-based, Mycobacterium abscessus; settings: Mycobacteroides abscessus; M. abscessus-C16, 72 h
[20] = system: M. abscessus-C28; experiment: MIC determination (Microplate Alamar Blue Assay); assay type: cell-based, Mycobacterium abscessus; settings: Mycobacteroides abscessus, 72 h
[21] = system: M. abscessus-C58; experiment: MIC determination (Microplate Alamar Blue Assay); assay type: cell-based, Mycobacterium abscessus; settings: Mycobacteroides abscessus; M. abscessus-C58, 72 h
[22] = system: M. tuberculosis H37Rv ATCC27294; experiment: MIC determination (Microplate Alamar Blue Assay); assay type: cell-based, Mycobacterium tuberculosis; settings: M. tuberculosis H37Rv ATCC27294, 7 days
[23] = system: M. bovis BCG (Pasteur 1173P2); experiment: microbe, parasite or virus in culture; assay type: cell-based; settings: Mycobacterium tuberculosis variant bovis BCG, 168 h
[24] = system: M. smegmatis mc^2155; experiment: MIC determination (Microplate Alamar Blue Assay); assay type: cell-based; settings: Mycolicibacterium smegmatis; M. smegmatis mc^2155, 72 h
[25] = in vitro; assay type: in vitro ADME; settings: human, plasma, pH 7.4
Protocol: Human plasma (BIOMEX GmbH) was mixed from more than 6 individuals and rat plasma was mixed from more than 10 rats. […] The samples were matched with opposite blank buffer to obtain a final volume of 100 µL with a volume ratio of the matrix: Dialysis Buffer (100 mM sodium phosphate and 150 mM NaCl, pH 7.4) (1:1) in each well. […] The plate was sealed and shaken at 800 rpm for 10 min. Then these T0 samples were stored at 4 °C pending further processing along with other post-dialysis samples. […] The plate was rotated at 100 rpm in a humidified incubator with 5% CO2 at 37 °C for 4 h. At the end of the dialysis, all samples were further processed by protein precipitation for LC-MS/MS analysis. The %bound was calculated using the following equations:%Unbound = 100 × F/T %Bound = 100 − %Unbound
F = Free compound concentration as determined by the calculated concentration on the buffer side of the membrane.
T = Total compound concentration as determined by the calculated concentration on the matrix side of the membrane.

[26] = in vitro; assay type: in vitro ADME; settings: microsomes
Protocol: Microsomes from humans and rats were purchased from Corning (Shanghai, China) and Xenotech (Kansas City, KS, USA), respectively. The working solution of liver microsomes was prepared in 100 mM phosphate buffer at 0.56 mg/mL. The quench solution was cold (4 °C) acetonitrile (ACN) containing 200 ng/mL Verapamil and 200 ng/mL Imipramine as internal standards (IS). An amount of 445 µL of the microsomal working solution was transferred into the pre-warmed plates T120 (incubate time: 120 min) and NCF 120 (no co-factor NADPH regenerating system), then the plates were incubated at 37 °C for 10 min with constant shaking. An amount of 54 µL of the liver microsomes was transferred into a blank plate, and 6 µL NADPH and 180 µL quenching solution were added to the blank plate. The microsomal working solution (0.56 mg/mL) and the compound working solution (100 µM) were mixed 3 times thoroughly and 54 µL was immediately removed for the 0 min point. Then 44 µL NADPH cofactor was added to the incubation plate, and shaken at 37 °C for 120 min. At 15, 30, 60, 90, and 120 min, a 60 µL sample was transferred to the quenching solution and centrifuged at 4000 rpm for 20 min at 4 °C [6]. Then, 80 µL supernatant was transferred to the HPLC water and shaken for 10 min before LC-MS/MS analysis.

[27] = in vitro; assay type: in vitro ADME; settings: hepatocytes
Protocol: Cryopreserved hepatocytes from male SD rats and humans were both purchased from Bioreclamation-IVT. The human cryopreserved hepatocytes were pooled from 10 human donors with a viability of 77.9% tested by trypan blue. The rats’ cryopreserved hepatocytes were pooled from 12 male SD (Sprague Dawley) rats, and the cell viability was 80.9%. The hepatocytes were diluted to 0.5 × 10^6/mL cell suspension with pre-warmed incubation medium ([…]). […] At 15, 30, 60, and 90 min, the samples were mixed and then 25 μL of each sample was transferred at each time point to a well containing 125 μL of ice-cold stop solution (acetonitrile containing 200 ng/mL tolbutamide and labetalol as internal standards) followed by mixing. The samples were vortexed on a plate shaker at 500 rpm for 10 min, and centrifuged at 3220× g for 20 min at 4 °C. The supernatants were transferred to ultra-pure water and analyzed by LC-MS/MS. […] CLint (hep) = k/million cells per mL CLint (liver) = CLint (hep) × liver weight (g/kg body weight) × hepatocellularity

[28] = human
[29] = male, Sprague-Dawley, rat, in vivo, iv, 3 mg/kg
[30] = allometric scaling from rat volume of distribution
[31] = system: Wolbachia-infected LDW1 cells (wMel); settings: cited from earlier work
[32] = system: Wolbachia-infected C6/36 cells (wAlb); settings: cited from earlier work
[33] = in vivo; settings: male, Sprague-Dawley, rat
[34] = physchem
[35] = in vitro; settings: African green monkey
[36] = system: MDR1-MDCK; settings: cited from earlier work
[37] = Pharmacokinetics in rats; settings: Rat
[38] = Mycobacterium tuberculosis, 168 h, read-out: MIC

O=C(O)c1cn(C2CC2)c2cc(N3CCNCC3)c(F)cc2c1=O [Ciproflox, Ciprofloxacin]
MIC [1]: > 32 µg/mL
MIC [2]: > 32 µg/mL
MIC [3]: 0.25 µg/mL (≈ 0.754 µM)
MIC [4]: 1 µg/mL (≈ 3.02 µM)
MIC [5]: 0.25 µg/mL (≈ 0.754 µM)
MIC [6]: > 32 µg/mL
MIC [7]: 0.25 µg/mL (≈ 0.754 µM)
MIC [8]: ≤ 0.031 µg/mL
MIC [9]: > 32 µg/mL
MIC [10]: 2 µg/mL (≈ 6.04 µM)

NCC[C@H](O)C(=O)N[C@@H]1C[C@H](N)[C@@H](O[C@H]2O[C@H](CN)[C@@H](O)[C@H](O)[C@H]2O)[C@H](O)[C@H]1O[C@H]1O[C@H](CO)[C@@H](O)[C@H](N)[C@H]1O [Amikacin]
MIC [11]: 8 µg/mL (≈ 13.7 µM)
MIC [12]: > 32 µg/mL
MIC [1]: > 32 µg/mL
MIC [2]: 2 µg/mL (≈ 3.42 µM)
MIC [3]: ≤ 1 µg/mL
MIC [4]: > 32 µg/mL
MIC [5]: 32 µg/mL (≈ 54.6 µM)
MIC [6]: > 32 µg/mL
MIC [7]: > 32 µg/mL
MIC [13]: > 32 µg/mL
MIC [14]: 2 µg/mL (≈ 3.42 µM)
MIC [15]: > 32 µg/mL
MIC [16]: 8 µg/mL (≈ 13.7 µM)
MIC [17]: 8 µg/mL (≈ 13.7 µM)
MIC [10]: > 32 µg/mL
MIC [18]: 6.38 µg/mL (≈ 10.9 µM)
MIC [19]: 12.7 µg/mL (≈ 21.7 µM)
MIC [20]: 14.5 µg/mL (≈ 24.7 µM)
MIC [21]: 12.8 µg/mL (≈ 21.9 µM)

CO[C@H]1/C=C/O[C@@]2(C)Oc3c(C)c(O)c4c(O)c(c(/C=N/N5CCN(C)CC5)c(O)c4c3C2=O)NC(=O)/C(C)=C\C=C\[C@H](C)[C@H](O)[C@@H](C)[C@@H](O)[C@@H](C)[C@H](OC(C)=O)[C@@H]1C [Rifampicin]
MIC [11]: 0.0063 µg/mL (≈ 0.00766 µM)
MIC [12]: ≤ 0.031 µg/mL
MIC [1]: ≤ 0.031 µg/mL
MIC [2]: ≤ 0.031 µg/mL
MIC [3]: ≤ 0.031 µg/mL
MIC [4]: ≤ 0.031 µg/mL
MIC [5]: 0.063 µg/mL (≈ 0.0766 µM)
MIC [6]: 4 µg/mL (≈ 4.86 µM)
MIC [7]: 1 µg/mL (≈ 1.22 µM)
MIC [13]: 2 µg/mL (≈ 2.43 µM)
MIC [8]: 0.25 µg/mL (≈ 0.304 µM)
MIC [14]: 2 µg/mL (≈ 2.43 µM)
MIC [9]: 4 µg/mL (≈ 4.86 µM)
MIC [15]: > 32 µg/mL
MIC [16]: > 32 µg/mL
MIC [17]: 8 µg/mL (≈ 9.72 µM)
MIC [10]: 16 µg/mL (≈ 19.4 µM)
MIC [22, 38]: 0.031 µg/mL (≈ 0.0377 µM)
MIC [23]: ≤ 0.031 µg/mL
MIC [24]: 13.3 µg/mL (≈ 16.1 µM)
MIC [18]: > 20 µg/mL
MIC [19]: > 20 µg/mL
MIC [20]: > 20 µg/mL
MIC [21]: > 20 µg/mL

C=C[C@]1(C)C[C@@H](OC(=O)COc2ccc3c(c2F)B(O)OC3)[C@]2(C)[C@H](C)CC[C@]3(CCC(=O)[C@H]32)[C@@H](C)[C@@H]1O [AN11251]
fraction unbound at 4 h, 2 µM [25]: 0.024
CLint scaled ([26]; human): 300 mL/min/kg
CLint scaled ([26]; rat): 333 mL/min/kg
CLint scaled at 20 µg/mL ([27]; human): 180 mL/min/kg
hepatocyte CLint at 20 µg/mL ([27]; human): 64.8 µL/min/1e6 cells
CLint scaled at 20 µg/mL ([27]; male, Sprague-Dawley, rat): 876 mL/min/kg
MIC [11]: < 0.039 µg/mL
MIC [12]: < 0.039 µg/mL
MIC [1]: 0.063 µg/mL (≈ 0.119 µM)
MIC [2]: 0.063 µg/mL (≈ 0.119 µM)
MIC [3]: 0.063 µg/mL (≈ 0.119 µM)
MIC [4]: 0.5 µg/mL (≈ 0.946 µM)
MIC [5]: 0.063 µg/mL (≈ 0.119 µM)
MIC [6]: 0.125 µg/mL (≈ 0.237 µM)
MIC [7]: 4 µg/mL (≈ 7.57 µM)
MIC [13]: 5 µg/mL (≈ 9.46 µM)
MIC [8]: 2 µg/mL (≈ 3.78 µM)
MIC [14]: 20 µg/mL (≈ 37.8 µM)
MIC [9]: 32 µg/mL (≈ 60.6 µM)
MIC [15]: > 32 µg/mL
MIC [16]: > 32 µg/mL
MIC [17]: > 32 µg/mL
MIC [10]: > 32 µg/mL
MIC [22]: 0.952 µg/mL (≈ 1.8 µM)
MIC [22, 38]: 0.925 µg/mL (≈ 1.75 µM)
MIC [23]: 2.5 µg/mL (≈ 4.73 µM)
MIC [24]: > 20 µg/mL
MIC [18]: > 20 µg/mL
MIC [19]: > 20 µg/mL
MIC [20]: > 20 µg/mL
MIC [21]: > 20 µg/mL
half-life [28]: 4.2 h
MRT [29]: 1.04 h
predicted human volume of distribution [30]: 1.029 L/kg
EC50 [31]: 0.000792 µg/mL (≈ 0.0015 µM)
EC50 [32]: 0.00792 µg/mL (≈ 0.015 µM)
bioavailability [33]: 19.2%
Tmax ([33]; iv, 3 mg/kg): 0 h
Vd ([33]; iv, 3 mg/kg): 1.44 L/kg
clearance ([33]; iv, 3 mg/kg): 19.8 mL/min/kg
half-life ([33]; iv, 3 mg/kg): 1.75 h
MRT ([33]; iv, 3 mg/kg): 1.22 h
half-life ([33]; po, 10 mg/kg): 2.39 h
MRT ([33]; po, 10 mg/kg): 2.26 h
logP [34]: 4.5
CC50 [35]: 27 µg/mL (≈ 51.1 µM)
apparent permeability (Papp) [36]: 14.1 ×10⁻⁶ cm/s
time until eliminated (plasma concentration-time curve) [37]: ≤ 8 h
